This is an account of results in US5811421A, “Naphthyl and dihydronaphthyl intermediates, compounds, compositions, and methods” (Eli Lilly and Company, priority 1996, dated 1998).

For assay [1], the system named is ovariectomized rats (uterus). The assay is described as follows: Uterine weight in ovariectomized (OVX) rats, 4-day oral dosing. The format is in vivo, female Sprague Dawley rats. The settings on record: for Uterine Weight (% increase vs. OVX): OVX rats. As for the experimental part:
(§1) In the examples illustrating the methods of the present invention, a post-menopausal model was used in which effects of different treatments upon circulating lipids were determined.
(§2) Seventy-five day old female Sprague Dawley rats (weight range of 200 to 225g) were obtained from Charles River Laboratories (Portage, MI). The animals were either bilaterally ovariectomized (OVX) or exposed to a Sham surgical procedure at Charles River Laboratories, and then shipped after one week. Upon arrival, they were housed in metal hanging cages in groups of 3 or 4 per cage and had ad libitum access to food (calcium content approximately 0.5%) and water for one week. Room temperature was maintained at 22.2°±1.7° C. with a minimum relative humidity of 40%. The photoperiod in the room was 12 hours light and 12 hours dark.
(§3) Dosing Regimen Tissue Collection. After a one week acclimation period (therefore, two weeks post-OVX) daily dosing with test compound was initiated. 17α-ethynyl estradiol or the test compound were given orally, unless otherwise stated, as a suspension in 1% carboxymethylcellulose or dissolved in 20% cyclodextrin. Animals were dosed daily for 4 days. Following the dosing regimen, animals were weighed and anesthetized with a ketamine: xylazine (2:1, V:V) mixture and a blood sample was collected by cardiac puncture. The animals were then sacrificed by asphyxiation with CO2, the uterus was removed through a midline incision, and a wet uterine weight was determined.
(§4) Data presented in Table 1 below show comparative results among ovariectomized rats, rats treated with 17α-ethynyl estradiol (EE2; an orally available form of estrogen), and rats treated with certain compounds of the present invention. […] This uterine response to estrogen is well recognized in the art.
(§5) The data presented in the Tables 1 below reflects the response of 5 to 6 rats per treatment.

The next assay concerns serum cholesterol. The assay is described as follows: Serum cholesterol in ovariectomized rats, 4-day oral dosing. The format is in vivo, female Sprague Dawley rats. The settings on record: for Serum Cholesterol (% decrease vs. OVX): OVX rats. The procedure:
as §1, §2, §3
Cholesterol Analysis. Blood samples were allowed to clot at room temperature for 2 hours, and serum was obtained following centrifugation for 10 minutes at 3000 rpm. Serum cholesterol was determined using a Boehringer Mannheim Diagnostics high performance cholesterol assay. Briefly the cholesterol was oxidized to cholest-4-en-3-one and hydrogen peroxide. The hydrogen peroxide was then reacted with phenol and 4-amino-phenazone in the presence of peroxidase to produce a p-quinone imine dye, which was read spectrophotemetrically at 500 nm. Cholesterol concentration was then calculated against a standard curve. The entire assay was automated using a Biomek Automated Workstation.
as §4, §5

Assay [2] deals with Uterine Eosinophil Peroxidase (EPO). The assay is described as follows: Uterine Eosinophil Peroxidase (EPO) Assay / eosinophil infiltration into the uterus of ovariectomized rats. Format: in vivo, female Sprague Dawley rats. The settings on record: for Uterine EPO (V. max): OVX rats, oral. Set-up: Uterine EPO (V. max): unit not given here. As for the experimental part:
as §1, §2, §3
Uterine Eosinophil Peroxidase (EPO) Assay. Uteri were kept at 4° C. until time of enzymatic analysis. The uteri were then homogenized in 50 volumes of 50 mM Tris buffer (pH-8.0) containing 0.005% Triton X-100. Upon addition of 0.01% hydrogen peroxide and 10 mM O-phenylenediamine (final concentrations) in Tris buffer, increase in absorbance was monitored for one minute at 450 nm. The presence of eosonophils in the uterus is an indication of estrogenic activity of a compound. The maximal velocity of a 15 second interval was determined over the initial, linear portion of the reaction curve.
As is expressed in the below data, estrogenicity also was assessed by evaluating the adverse response of eosinophil infiltration into the uterus.
as §5

Assay [3] has as its system MCF-7 breast adenocarcinoma cells. The assay is described as follows: MCF-7 Proliferation Assay. The format is cell-based. The settings on record: Homo sapiens, MCF7; MCF-7 cells, tritiated thymidine incorporation, 48 hours. The procedure: MCF-7 Proliferation Assay MCF-7 breast adenocarcinoma cells (ATCC HTB 22) were maintained in MEM (minimal essential medium, phenol red- free, Sigma, St. Louis, Mo.) supplimented with 10% fetal bovine serum (FBS) (V/V), L-glutamine (2 mM), sodium pyruvate (1 mM), HEPES {(N-[2-hydroxyethyl]piperazine-N'-[2-ethanesulfonic acid]10 mM}, non-essential amino acids and bovine insulin (1 ug/mL) (maintenance medium). Ten days prior to assay, MCF-7 cells were switched to maintenance medium supplemented with 10% dextran coated charcoal stripped fetal bovine serum (DCC-FBS) assay medium) in place of 10% FBS to deplete internal stores of steroids. MCF-7 cells were removed from maintenance flasks using cell dissociation medium (Ca++/Mg++free HBSS (phenol red-free) supplemented with 10 mM HEPES and 2 mM EDTA). Cells were washed twice with assay medium and adjusted to 80,000 cells/mL. Approximately 100 μL (8,000 cells) were added to flat-bottom microculture wells (Costar 3596) and incubated at 37° C. in a 5% CO2 humidified incubator for 48 hours to allow for cell adherence and equilibration after transfer. Serial dilutions of drugs or DMSO as a diluent control were prepared in assay medium and 50 μL transferred to triplicate microcultures followed by 50 μL assay medium for […]. After an additional 48 hours at 37° C. in a 5% CO2 humidified incubator, microcultures were pulsed with tritiated thymidine (1 uCi/well) for 4 hours. Cultures were terminated by freezing at -70° C. for 24 hours followed by thawing and harvesting of microcultures using a Skatron Semiautomatic Cell Harvester. Samples were counted by liquid scintillation using a Wallac BetaPlace β counter. Results in Table 4 below show the IC50 for certain compounds of the present invention.

Assay [4] concerns proximal tibiae metaphysis (bone mineral density) of ovariectomized rats. The assay is described as follows: Osteoporosis Test Procedure: protection against bone loss in ovariectomized rats, 35 days. The format is in vivo. The following applies: oral; for Tibia BMD pQCT (% protection): OVX rats. From the text: Seventy-five day old female Sprague Dawley rats (weight range of 200 to 225g) were obtained from Charles River Laboratories (Portage, MI). The animals were either bilaterally ovariectomized (OVX) or exposed to a Sham surgical procedure at Charles River Laboratories, and then shipped after one week. Upon arrival, they were housed in metal hanging cages in groups of 3 or 4 per cage and had ad libitum access to food (calcium content approximately 0.5%) and water for one week. Room temperature was maintained at 22.2°±1.7° C. with a minimum relative humidity of 40%. The photoperiod in the room was 12 hours light and 12 hours dark. Following the General Preparation Procedure, infra, the rats were treated daily for 35 days (6 rats per treatment group) and sacrificed by carbon dioxide asphyxiation on the 36th day. The 35 day time period was sufficient to allow maximal reduction in bone density, measured as described herein. At the time of sacrifice, the uteri were removed, dissected free of extraneous tissue, and the fluid contents were expelled before determination of wet weight in order to confirm estrogen deficiency associated with complete ovariectomy. […] The uteri were then placed in 10% neutral buffered formalin to allow for subsequent histological analysis. The right femurs were excised and digitilized x-rays generated and analyzed by an image analysis program (NIH image) at the distal metaphysis. The proximal aspect of the tibiae from these animals were also scanned by quantitative computed tomography. In accordance with the above procedures, compounds of the present invention and ethynyl estradiol (EE2) in 20% hydroxypropyl β-cyclodextrin were orally administered to test animals. Proximal tibiae metaphysis data presented in Table 2 are the results of formula I compound treatments compared to intact and ovariectomized test animals. Results are reported as percent protection against bone loss which was calculated for individual animals by the following formula: % protection=(BMDtest BMDovx)/(BMDsham -BMDovx)×100.

The mark [5] stands for this setting: 0.1 mg/kg daily for 35 days, values marked * (two tailed Student's T Test).

SMILES strings stand for the structures. Where a name gives a salt, the structure may show the parent alone.

As usually defined, the IC50 is the concentration that gives 50% inhibition.

`COc1ccc2c(c1)CCC(C1CCCCC1)=C2C(=O)c1ccc(OCCN2CCCCC2)cc1` [Example 4, [3,4-Dihydro-2-cyclohexyl-6-methoxynaphthalen-1-yl][4-[2-(1-piperdinyl)ethoxy]phenyl]methanone]: the results for the “Uterine Weight (% increase vs. OVX)” value in assay [1] (0.1 mg/kg daily for 4 days), in assay [1] (1.0 mg/kg daily for 4 days) and in assay [1] (10.0 mg/kg daily for 4 days) were 32.0%, 30.7% and 24.2%, respectively. In addition, the entries for the “Serum Cholesterol (% decrease vs. OVX)” value in the assay with serum cholesterol (0.1 mg/kg daily for 4 days), in the assay on serum cholesterol (1.0 mg/kg daily for 4 days) and in the assay on serum cholesterol (10.0 mg/kg daily for 4 days) were 65.5%, 56.6% and 58.3%, respectively. Further, the “Uterine EPO (V. max)” value in assay [2] (0.1 mg/kg daily for 4 days) was determined as 2.1; in assay [2] (1.0 mg/kg daily for 4 days), 8.1; in assay [2] (10.0 mg/kg daily for 4 days), 10.6.

On to `CCc1ccc2cc(O)ccc2c1Cc1ccc(OCCN2CCCCC2)cc1` [Example 1, [2-Ethyl-6-hydroxynaphthalen-1-yl][4-[2-(1-piperdinyl)ethoxy]phenyl]methanehydrochloride], for which the “Uterine Weight (% increase vs. OVX)” value in assay [1] (0.1 mg/kg daily for 4 days) is listed as -3.3%; in assay [1] (1.0 mg/kg daily for 4 days), 3.0%; in assay [1] (10.0 mg/kg daily for 4 days) it was 60.2%. The “Serum Cholesterol (% decrease vs. OVX)” value in the assay on serum cholesterol (0.1 mg/kg daily for 4 days) is 20.3%; in the assay on serum cholesterol (1.0 mg/kg daily for 4 days), 23.1%; in the assay with serum cholesterol (10.0 mg/kg daily for 4 days) it was 38.6%. The midpoint of inhibition in assay [3], the IC50, lay at 10 nM. Further, the “Uterine EPO (V. max)” value in assay [2] (0.1 mg/kg daily for 4 days) was 6.6; in assay [2] (1.0 mg/kg daily for 4 days), 12.0; in assay [2] (10.0 mg/kg daily for 4 days), 12.0.

On to `Oc1ccc2c(Cc3ccc(OCCN4CCCCC4)cc3)c([C@H]3CC[C@H](O)CC3)ccc2c1` [Example 2, hydrochloride], for which the “Uterine Weight (% increase vs. OVX)” value in assay [1] (0.1 mg/kg daily for 4 days) is recorded as 32.0%; in assay [1] (1.0 mg/kg daily for 4 days), 17.1%; in assay [1] (10.0 mg/kg daily for 4 days), 6.7%. In addition, the “Serum Cholesterol (% decrease vs. OVX)” value with serum cholesterol (0.1 mg/kg daily for 4 days) came out at 57.8%; in the assay on serum cholesterol (1.0 mg/kg daily for 4 days) it was 71.8%; in the assay with serum cholesterol (10.0 mg/kg daily for 4 days), 34.9%. In assay [3], this compound registered an IC50 of 1 nM. Further, the “Uterine EPO (V. max)” value turned out to be 4.8 in assay [2] (0.1 mg/kg daily for 4 days), 4.8 in assay [2] (1.0 mg/kg daily for 4 days) and 3.6 in assay [2] (10.0 mg/kg daily for 4 days).

`C#C[C@]1(O)CC[C@H]2[C@@H]3CCc4cc(O)ccc4[C@H]3CC[C@@]21C` [EE2, 17α-ethynyl estradiol, reference compound]: the “Uterine weight (in words)” value in assay [1] (0.1 mg/kg/day) was “uterine weight was substantially greater than the uterine weight of ovariectomized test animals”. For the same compound, the “Uterine Weight (% increase vs. OVX)” value in assay [1] (0.1 mg/kg daily for 4 days) was found to be 86.3%. In the assay on serum cholesterol (0.1 mg/kg/day), the “Serum cholesterol (in words)” value is on record as “caused a decrease in serum cholesterol”. Further, the “Serum Cholesterol (% decrease vs. OVX)” value with serum cholesterol (0.1 mg/kg daily for 4 days) worked out at 81.4%. Also, the “Uterine EPO (V. max)” value in assay [2] (0.1 mg/kg daily for 4 days) is 116.4. For the same compound, the “eosinophil infiltration into the uterus (in words)” value in assay [2] (stromal layer of ovariectomized rats) is “substantial, expected increase in eosinophil infiltration”. Moreover, the “Tibia BMD pQCT (% protection)” value in assay [4] (setting [5]) is on record as 60.9%. For the same compound, the “prevention of bone loss (in words)” value in assay [4] (ovariectomized rats, 35 days) was “prevented this loss”.

On to `COc1ccc2c(Cc3ccc(OCCN4CCCCC4)cc3)c(C3CCCCC3)ccc2c1` [Example 5, [2-Cyclohexyl-6-methoxynaphthalen-1-yl][4-[2-(1-piperdinyl)ethoxy]phenyl]methane], for which the figures for the “Uterine Weight (% increase vs. OVX)” value in assay [1] (0.1 mg/kg daily for 4 days), in assay [1] (1.0 mg/kg daily for 4 days) and in assay [1] (10.0 mg/kg daily for 4 days) were 21.2%, 10.4% and 6.4%, respectively. The figures for the “Serum Cholesterol (% decrease vs. OVX)” value in the assay on serum cholesterol (0.1 mg/kg daily for 4 days), with serum cholesterol (1.0 mg/kg daily for 4 days) and with serum cholesterol (10.0 mg/kg daily for 4 days) were 77.6%, 76.3% and 65.8%, respectively. This compound also displayed an IC50 in assay [3] of 10 nM. The “Uterine EPO (V. max)” value is 21.2 in assay [2] (0.1 mg/kg daily for 4 days), 4.2 in assay [2] (1.0 mg/kg daily for 4 days) and 5.3 in assay [2] (10.0 mg/kg daily for 4 days).

For the compound `Oc1ccc2c(Cc3ccc(OCCN4CCCCC4)cc3)c(C3CCCCC3)ccc2c1` [Example 6, [2-Cyclohexyl-6-hydroxynaphthalen-1-yl][4-[2-(1-piperdinyl)ethoxy]phenyl]methane hydrochloride], the “Uterine Weight (% increase vs. OVX)” value in assay [1] (0.1 mg/kg daily for 4 days) was determined as 65.7%; in assay [1] (1.0 mg/kg daily for 4 days), 22.8%; in assay [1] (10.0 mg/kg daily for 4 days), 22.0%. Further, the figures for the “Serum Cholesterol (% decrease vs. OVX)” value in the assay on serum cholesterol (0.1 mg/kg daily for 4 days), in the assay with serum cholesterol (1.0 mg/kg daily for 4 days) and in the assay on serum cholesterol (10.0 mg/kg daily for 4 days) were 57.4%, 46.8% and 63.9%, respectively. Also, the IC50 in assay [3] amounted to 0.6 nM. The entries for the “Uterine EPO (V. max)” value in assay [2] (0.1 mg/kg daily for 4 days), in assay [2] (1.0 mg/kg daily for 4 days) and in assay [2] (10.0 mg/kg daily for 4 days) were 17.7, 4.2 and 4.5, respectively. The “Tibia BMD pQCT (% protection)” value in assay [4] (0.01 mg/kg daily for 35 days) stood at 23.1%; in assay [4] (setting [5]) it was 52.6%; in assay [4] (1.0 mg/kg daily for 35 days), 30.1%; in assay [4] (3.0 mg/kg daily for 35 days, value marked * (two tailed Student's T Test)), 59.6%.
